Measured values: patent publication US20260109690A1, “HDAC6 INHIBITORS AND METHOD OF THEIR USE” (Baerenkraft Therapeutics, LLC., priority 2024, published 2026)

Assay: Tg2576 study: bioanalysis
Type: in vivo, mice
From the text: At termination, animals were given a final dose, and under mild anesthesia, blood was collected retro-orbitally and separated plasma were utilized for bio analysis (G3) and ex vivo analysis. Then animals were euthanized under CO2 asphyxiation and brain tissue was collected and divided into two equal hemispheres. One hemisphere was fixed in 10% NBF for immunohistochemistry and from another hemisphere, dissected cortex and hippocampus was utilized for ex vivo analysis.
At the end of the experiment, animals in group G3 were dosed with the test compound, blood was collected under mild anesthesia, and separated plasma was utilized for drug bioanalysis by LC-MS/MS.

## C[C@@H]1CN(Cc2ccc(Nc3nccc(-c4ccc(C(=O)NO)cc4)n3)cc2F)CCO1 [Compound I-16, (R)-4-(2-((3-fluoro-4-((2-methylmorpholino)methyl)phenyl)amino)pyrimidin-4-yl)-N-hydroxybenzamide]
G3 Tg2576 mice, end of experiment, 9 hr post dose
  Brain Conc (ng/mL): No Peak
G3 mice bled at different time points after the water maze test
  plasma concentration time course: time course dependent decrease
male, mouse, plasma, oral, G3 Tg2576 mice, end of experiment, 2 hr post dose, read-out: Plasma Concentrations
  concentration at 2 h: 106 ± 13.8 ng/mL
male, mouse, plasma, oral, G3 Tg2576 mice, end of experiment, 4 hr post dose, read-out: Plasma Concentrations
  concentration at 4 h: 32.6 ± 4.75 ng/mL
male, mouse, plasma, oral, G3 Tg2576 mice, end of experiment, 6 hr post dose, read-out: Plasma Concentrations
  concentration at 6 h: 19 ± 4.16 ng/mL
male, mouse, plasma, oral, G3 Tg2576 mice, end of experiment, 8 hr post dose, read-out: Plasma Concentrations
  concentration at 8 h: 12.1 ± 2.1 ng/mL
